Results published in publication PMC7615792 (ACS catalysis, 2023).

Tests used:
AtzB_Hom_Hal = target: T1, AtzB_Hom_Hal (Mangrovimicrobium sediminis, UniProt A0A4Z0M5D5); test: direct photometric steady-state assay, spectrophotometer; assay type: biochemical; conditions: 50 mM potassium phosphate pH 7.5, 25 °C
T1 sequence (A0A4Z0M5D5 1-465): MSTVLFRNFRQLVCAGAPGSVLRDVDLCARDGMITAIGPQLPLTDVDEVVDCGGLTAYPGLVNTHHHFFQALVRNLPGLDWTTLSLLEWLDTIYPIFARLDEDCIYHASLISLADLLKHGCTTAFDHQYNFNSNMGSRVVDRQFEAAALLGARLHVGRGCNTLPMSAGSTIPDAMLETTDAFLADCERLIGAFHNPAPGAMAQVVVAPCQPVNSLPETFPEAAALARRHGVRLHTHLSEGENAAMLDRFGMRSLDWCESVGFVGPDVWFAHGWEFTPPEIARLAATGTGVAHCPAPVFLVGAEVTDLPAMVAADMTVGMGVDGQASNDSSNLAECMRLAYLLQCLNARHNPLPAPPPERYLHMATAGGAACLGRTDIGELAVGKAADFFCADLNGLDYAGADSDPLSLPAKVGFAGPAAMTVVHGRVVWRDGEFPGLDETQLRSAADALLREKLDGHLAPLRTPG

AtzB = target: T2, AtzB (Pseudomonas sp. ADP, UniProt P95442); test: as above; assay type: biochemical; conditions: 50 mM potassium phosphate pH 7.5, 25 °C
T2 sequence (P95442 1-481): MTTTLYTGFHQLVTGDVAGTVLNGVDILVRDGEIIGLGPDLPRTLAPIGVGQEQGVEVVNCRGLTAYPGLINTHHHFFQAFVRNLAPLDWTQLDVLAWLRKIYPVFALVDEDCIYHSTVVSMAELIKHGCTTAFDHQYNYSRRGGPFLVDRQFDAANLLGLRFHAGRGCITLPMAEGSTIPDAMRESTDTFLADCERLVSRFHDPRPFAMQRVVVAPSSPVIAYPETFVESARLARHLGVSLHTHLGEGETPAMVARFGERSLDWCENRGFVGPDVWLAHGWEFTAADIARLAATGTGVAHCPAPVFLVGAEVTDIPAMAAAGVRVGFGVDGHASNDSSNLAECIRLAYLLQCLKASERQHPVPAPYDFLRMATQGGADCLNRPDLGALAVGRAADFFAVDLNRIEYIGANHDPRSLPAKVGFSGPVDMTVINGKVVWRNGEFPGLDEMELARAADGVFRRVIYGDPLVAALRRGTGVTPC

SMILES | KM (AtzB_Hom_Hal) | kcat/KM (AtzB)
CCNc1nc(O)nc(NC(C)C)n1 [II, hydroxyatrazine] | promiscuous hydroxyatrazine hydrolase activities of AtzB_Hom_Hal and AtzB_Hom_Pleo | 
Nc1nc2[nH]cnc2c(=O)[nH]1 [guanine] |  | represents an increase of about three orders of magnitude compared to AtzB
